Data from ChEMBL document CHEMBL3885881, “DrugMatrix”.

Organism: Rattus norvegicus
Experiment: DrugMatrix - Regimen: Daily Repeat
Format: toxicity, organism-based, Sprague-Dawley
Design: regimen Daily Repeat, gender Male, age 6-8 weeks
Conditions: in vivo, po, route oral GAVAGE, vehicle .5 % CMC; for ABSOLUTE BASOPHIL / ABSOLUTE EOSINOPHIL / ABSOLUTE LYMPHOCYTE / ABSOLUTE MONOCYTE / ABSOLUTE SEGMENTED NEUTROPHIL / BASOPHIL / EOSINOPHIL / ERYTHROCYTE COUNT / HEMATOCRIT / HEMOGLOBIN / LEUKOCYTE COUNT / LYMPHOCYTE / MEAN CORPUSCULAR HEMOGLOBIN / MEAN CORPUSCULAR HEMOGLOBIN CONCENTRATION / MEAN CORPUSCULAR VOLUME / MONOCYTE / NEUTROPHIL / NUCLEATED RED BLOOD CELLS / PLATELET COUNT: tissue Blood; for ALANINE AMINOTRANSFERASE / ALBUMIN / ALKALINE PHOSPHATASE / ASPARTATE AMINOTRANSFERASE / BLOOD UREA NITROGEN / CARBON DIOXIDE / CHLORIDE / CHOLESTEROL / CREATINE PHOSPHOKINASE / CREATININE / GLUCOSE / LACTATE DEHYDROGENASE / LIPASE / PHOSPHORUS / POTASSIUM / SODIUM / TOTAL BILIRUBIN / TOTAL PROTEIN / URIC ACID: tissue Plasma
[1] = 10 mg/kg, 72 h, dose level Low, time 3 day
[2] = 10 mg/kg, 120 h, dose level Low, time 5 day
[3] = 1750 mg/kg, 72 h, dose level High, time 3 day
[4] = 1750 mg/kg, 120 h, dose level High, time 5 day

CCOC(=O)[C@H](CCc1ccccc1)N[C@H]1CCc2ccccc2N(CC(=O)O)C1=O [BENAZEPRIL]
ABSOLUTE BASOPHIL [1]: 0 CELLS/uL
ABSOLUTE EOSINOPHIL [1]: 0 CELLS/uL
ABSOLUTE LYMPHOCYTE [1]: 8474.33 CELLS/uL
ABSOLUTE MONOCYTE [1]: 40.67 CELLS/uL
ABSOLUTE SEGMENTED NEUTROPHIL [1]: 418.33 CELLS/uL
BASOPHIL [1]: 0%
EOSINOPHIL [1]: 0%
ERYTHROCYTE COUNT [1]: 5.44 x10E6/uL
HEMATOCRIT [1]: 35.27%
HEMOGLOBIN [1]: 14.3 G/DL
LEUKOCYTE COUNT [1]: 8.93 x10E3/uL
LYMPHOCYTE [1]: 94.33%
MEAN CORPUSCULAR HEMOGLOBIN [1]: 26.27 pg
MEAN CORPUSCULAR HEMOGLOBIN CONCENTRATION [1]: 40.53 G/DL
MEAN CORPUSCULAR VOLUME [1]: 64.8 fL
MONOCYTE [1]: 0.67%
NEUTROPHIL [1]: 5%
NUCLEATED RED BLOOD CELLS [1]: 0 /100WBC
PLATELET COUNT [1]: 1050 x10E3/uL
ALANINE AMINOTRANSFERASE [1]: 47.33 u/L
ALBUMIN [1]: 4.6 G/DL
ALKALINE PHOSPHATASE [1]: 428.33 u/L
ASPARTATE AMINOTRANSFERASE [1]: 84.67 u/L
BLOOD UREA NITROGEN [1]: 18 mg/dL
CARBON DIOXIDE [1]: 34.33 mmol/L
CHLORIDE [1]: 99 MEQ/L
CHOLESTEROL [1]: 78.67 mg/dL
CREATINE PHOSPHOKINASE [1]: 322 u/L
CREATININE [1]: 0.22 mg/dL
GLUCOSE [1]: 135.33 mg/dL
LACTATE DEHYDROGENASE [1]: 124.67 u/L
LIPASE [1]: 10 u/L
PHOSPHORUS [1]: 10.63 mg/dL
POTASSIUM [1]: 6.53 MEQ/L
SODIUM [1]: 145.23 MEQ/L
TOTAL BILIRUBIN [1]: 0.2 mg/dL
TOTAL PROTEIN [1]: 6.57 G/DL
URIC ACID [1]: 0.83 mg/dL
ABSOLUTE BASOPHIL [2]: 0 CELLS/uL
ABSOLUTE EOSINOPHIL [2]: 90 CELLS/uL
ABSOLUTE LYMPHOCYTE [2]: 12851.33 CELLS/uL
ABSOLUTE MONOCYTE [2]: 265.67 CELLS/uL
ABSOLUTE SEGMENTED NEUTROPHIL [2]: 1459.67 CELLS/uL
BASOPHIL [2]: 0%
EOSINOPHIL [2]: 0.67%
ERYTHROCYTE COUNT [2]: 5.31 x10E6/uL
HEMATOCRIT [2]: 33.43%
HEMOGLOBIN [2]: 13.47 G/DL
LEUKOCYTE COUNT [2]: 14.67 x10E3/uL
LYMPHOCYTE [2]: 88%
MEAN CORPUSCULAR HEMOGLOBIN [2]: 25.33 pg
MEAN CORPUSCULAR HEMOGLOBIN CONCENTRATION [2]: 40.27 G/DL
MEAN CORPUSCULAR VOLUME [2]: 62.9 fL
MONOCYTE [2]: 2%
NEUTROPHIL [2]: 9.33%
NUCLEATED RED BLOOD CELLS [2]: 0 /100WBC
PLATELET COUNT [2]: 1304.67 x10E3/uL
ALANINE AMINOTRANSFERASE [2]: 52.67 u/L
ALBUMIN [2]: 4.2 G/DL
ALKALINE PHOSPHATASE [2]: 304.33 u/L
ASPARTATE AMINOTRANSFERASE [2]: 76 u/L
BLOOD UREA NITROGEN [2]: 18 mg/dL
CARBON DIOXIDE [2]: 32 mmol/L
CHLORIDE [2]: 102 MEQ/L
CHOLESTEROL [2]: 73.67 mg/dL
CREATINE PHOSPHOKINASE [2]: 234.67 u/L
CREATININE [2]: 0.15 mg/dL
GLUCOSE [2]: 160.67 mg/dL
LACTATE DEHYDROGENASE [2]: 106.67 u/L
LIPASE [2]: 9 u/L
PHOSPHORUS [2]: 13.27 mg/dL
POTASSIUM [2]: 7.06 MEQ/L
SODIUM [2]: 144.9 MEQ/L
TOTAL BILIRUBIN [2]: 0.2 mg/dL
TOTAL PROTEIN [2]: 6.27 G/DL
URIC ACID [2]: 1.57 mg/dL
ABSOLUTE BASOPHIL [3]: 0 CELLS/uL
ABSOLUTE EOSINOPHIL [3]: 139.33 CELLS/uL
ABSOLUTE LYMPHOCYTE [3]: 16004 CELLS/uL
ABSOLUTE MONOCYTE [3]: 0 CELLS/uL
ABSOLUTE SEGMENTED NEUTROPHIL [3]: 1823.33 CELLS/uL
BASOPHIL [3]: 0%
EOSINOPHIL [3]: 0.67%
ERYTHROCYTE COUNT [3]: 5.02 x10E6/uL
HEMATOCRIT [3]: 32.27%
HEMOGLOBIN [3]: 13.23 G/DL
LEUKOCYTE COUNT [3]: 17.97 x10E3/uL
LYMPHOCYTE [3]: 89.33%
MEAN CORPUSCULAR HEMOGLOBIN [3]: 26.43 pg
MEAN CORPUSCULAR HEMOGLOBIN CONCENTRATION [3]: 41.03 G/DL
MEAN CORPUSCULAR VOLUME [3]: 64.37 fL
MONOCYTE [3]: 0%
NEUTROPHIL [3]: 10%
NUCLEATED RED BLOOD CELLS [3]: 0 /100WBC
PLATELET COUNT [3]: 1175.67 x10E3/uL
ALANINE AMINOTRANSFERASE [3]: 47.67 u/L
ALBUMIN [3]: 4.13 G/DL
ALKALINE PHOSPHATASE [3]: 388 u/L
ASPARTATE AMINOTRANSFERASE [3]: 83.33 u/L
BLOOD UREA NITROGEN [3]: 23.67 mg/dL
CARBON DIOXIDE [3]: 28.33 mmol/L
CHLORIDE [3]: 101 MEQ/L
CHOLESTEROL [3]: 63.67 mg/dL
CREATINE PHOSPHOKINASE [3]: 244.67 u/L
CREATININE [3]: 0.24 mg/dL
GLUCOSE [3]: 152.33 mg/dL
LACTATE DEHYDROGENASE [3]: 297.33 u/L
LIPASE [3]: 9.33 u/L
PHOSPHORUS [3]: 11.27 mg/dL
POTASSIUM [3]: 7.42 MEQ/L
SODIUM [3]: 140.93 MEQ/L
TOTAL BILIRUBIN [3]: 0.23 mg/dL
TOTAL PROTEIN [3]: 5.73 G/DL
URIC ACID [3]: 1.73 mg/dL
ABSOLUTE BASOPHIL [4]: 0 CELLS/uL
ABSOLUTE EOSINOPHIL [4]: 0 CELLS/uL
ABSOLUTE LYMPHOCYTE [4]: 16017 CELLS/uL
ABSOLUTE MONOCYTE [4]: 660 CELLS/uL
ABSOLUTE SEGMENTED NEUTROPHIL [4]: 1423 CELLS/uL
BASOPHIL [4]: 0%
EOSINOPHIL [4]: 0%
ERYTHROCYTE COUNT [4]: 5.54 x10E6/uL
HEMATOCRIT [4]: 33.43%
HEMOGLOBIN [4]: 13.43 G/DL
LEUKOCYTE COUNT [4]: 18.1 x10E3/uL
LYMPHOCYTE [4]: 89.33%
MEAN CORPUSCULAR HEMOGLOBIN [4]: 24.3 pg
MEAN CORPUSCULAR HEMOGLOBIN CONCENTRATION [4]: 40.2 G/DL
MEAN CORPUSCULAR VOLUME [4]: 60.5 fL
MONOCYTE [4]: 3.67%
NEUTROPHIL [4]: 7%
NUCLEATED RED BLOOD CELLS [4]: 0.33 /100WBC
PLATELET COUNT [4]: 1330 x10E3/uL
ALANINE AMINOTRANSFERASE [4]: 49.67 u/L
ALBUMIN [4]: 4.03 G/DL
ALKALINE PHOSPHATASE [4]: 380.33 u/L
ASPARTATE AMINOTRANSFERASE [4]: 85.33 u/L
BLOOD UREA NITROGEN [4]: 44 mg/dL
CARBON DIOXIDE [4]: 30 mmol/L
CHLORIDE [4]: 104.33 MEQ/L
CHOLESTEROL [4]: 74.67 mg/dL
CREATINE PHOSPHOKINASE [4]: 585 u/L
CREATININE [4]: 0.27 mg/dL
GLUCOSE [4]: 150.67 mg/dL
LACTATE DEHYDROGENASE [4]: 227 u/L
LIPASE [4]: 9.33 u/L
PHOSPHORUS [4]: 10.53 mg/dL
POTASSIUM [4]: 6.39 MEQ/L
SODIUM [4]: 143.17 MEQ/L
TOTAL BILIRUBIN [4]: 0.2 mg/dL
TOTAL PROTEIN [4]: 6 G/DL
URIC ACID [4]: 1.53 mg/dL
